The source of these data is PubChem BioAssay AID1918936 (Molecular Pharmacology Branch, DTP, NCI, 2023).

Molecules are shown by their SMILES. Values joined by “and” are separate entries in the source; they are usually repeats but may differ in a detail not shown here. Identical values can stand only once.

The subject of this assay is 349418-098-R-PDC complex spheroid viability. As to the kind of experiment: Anticancer human tumor 349418-098-R-PDC patient-derived lung adenocarcinoma cell line growth inhibition. The settings on record: for viability, T/C: stronger effect = lower value. In outline: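 Complex spheroids of tumor cells with HUVEC and human MSCs, exposed to iadademstat combined with other agents. Each agent tested in half-log steps from near clinical Cmax (else 10 microM top), DMSO ≤0.25%.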

Where [1] appears, read: curve of first compound, second compound 0.1 µM.
Where [2] appears, read: curve of first compound, second compound 0.316 µM.
[3] abbreviates: curve of first compound, second compound 1 µM.
Where [4] appears, read: curve of first compound, second compound 3.16 µM.
Setting [5] is: curve of first compound, second compound 10 µM.
The mark [6] stands for this setting: second compound 0.1 µM, first compound 0.00949 µM.
Setting [7] is: second compound 0.1 µM, first compound 0.03 µM.
Setting [8] is: second compound 0.1 µM, first compound 0.0949 µM.
Where [9] appears, read: second compound 0.1 µM, first compound 0.3 µM.
[10] abbreviates: second compound 0.1 µM, first compound 0.949 µM.
The mark [11] stands for this setting: second compound 0.1 µM, first compound 3 µM.
[12] abbreviates: second compound 0.316 µM, first compound 0.00949 µM.
Setting [13] is: second compound 0.316 µM, first compound 0.03 µM.
[14] abbreviates: second compound 0.316 µM, first compound 0.0949 µM.
The mark [15] stands for this setting: second compound 0.316 µM, first compound 0.3 µM.
Setting [16] is: second compound 0.316 µM, first compound 0.949 µM.
[17] abbreviates: second compound 0.316 µM, first compound 3 µM.
[18] abbreviates: second compound 1 µM, first compound 0.00949 µM.
Setting [19] is: second compound 1 µM, first compound 0.03 µM.
Where [20] appears, read: second compound 1 µM, first compound 0.0949 µM.
[21] abbreviates: second compound 1 µM, first compound 0.3 µM.
[22] abbreviates: second compound 1 µM, first compound 0.949 µM.
Where [23] appears, read: second compound 1 µM, first compound 3 µM.
Setting [24] is: second compound 3.16 µM, first compound 0.00949 µM.
Where [25] appears, read: second compound 3.16 µM, first compound 0.03 µM.
[26] abbreviates: second compound 3.16 µM, first compound 0.0949 µM.
Setting [27] is: second compound 3.16 µM, first compound 0.3 µM.
Where [28] appears, read: second compound 3.16 µM, first compound 0.949 µM.
Setting [29] is: second compound 3.16 µM, first compound 3 µM.
[30] abbreviates: second compound 10 µM, first compound 0.00949 µM.
The mark [31] stands for this setting: second compound 10 µM, first compound 0.03 µM.
Where [32] appears, read: second compound 10 µM, first compound 0.0949 µM.
Setting [33] is: second compound 10 µM, first compound 0.3 µM.
Setting [34] is: second compound 10 µM, first compound 0.949 µM.
Setting [35] is: second compound 10 µM, first compound 3 µM.
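Note: spheroids exposed to agents for seven days before readout.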
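Throughout, for viability, T/C: 100% = DMSO vehicle control wells.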

By viability, T/C is commonly meant the result in the treated group divided by that in the control group, in per cent. One may read the IC50 as the midpoint of a concentration-inhibition curve. As to `O=C(C=Cn1cnc(-c2cc(C(F)(F)F)cc(C(F)(F)F)c2)n1)NNc1cnccn1`, the viability, T/C is 19.9% and 22.1% (compound 0.00316 µM); 8.55% and 22.4% (compound 0.01 µM); 6.32% and 7.96% (compound 0.0316 µM); 3.87% and 4.72% (compound 0.1 µM); 2.92% and 3.05% (compound 0.316 µM); 2.37% and 2.41% (compound 1 µM). The IC50 (curve of compound) is less than 3.16 nM.

For `COc1cc(C2c3cc4c(cc3C(OC3OC5COC(C)OC5C(O)C3O)C3COC(=O)C23)OCO4)cc(OC)c1O` (stereo not drawn) + NC1CC1c1ccc(-c2cccc(O)c2)cc1, the IC50 is 61.1 nM under setting [1]; 62.7 nM under setting [2]; 67.3 nM under setting [3]; 57.1 nM under setting [4]; 35 nM under setting [5]. Besides, the viability, T/C is 108% under setting [6]; 86.4% under setting [7]; 27.3% under setting [8]; 7.24% under setting [9]; 3.83% under setting [10]; 3.5% under setting [11]. Moreover, the viability, T/C is, setting by setting: under setting [12], 114%; under setting [13], 89.4%; under setting [14], 27.7%; under setting [15], 7.71%; under setting [16], 3.95%; under setting [17], 2.97%. The viability, T/C under setting [18] is 97.6%; the viability, T/C under setting [19] is 92.7%; the viability, T/C under setting [20] was 31.8%; the viability, T/C under setting [21] is 6.96%; the viability, T/C under setting [22] was 3.37%; the viability, T/C under setting [23] was 2.89%. In addition, the viability, T/C was 114% under setting [24]; 83.5% under setting [25]; 23.5% under setting [26]; 7.14% under setting [27]; 3.98% under setting [28]; 3.63% under setting [29]. The viability, T/C under setting [30] was 95.6%; the viability, T/C under setting [31] was 55.4%; the viability, T/C under setting [32] is 14.7%; the viability, T/C under setting [33] is 5.55%; the viability, T/C under setting [34] is 3.81%; the viability, T/C under setting [35] is 3.47%.

Turning to `CC(C)c1c(-c2ccccc2)nc2c(C#N)c[nH]n2c1=O`, the viability, T/C runs as follows: (compound 0.0316 µM) 97% and 109%; (compound 0.1 µM) 105% and 109%; (compound 0.316 µM) 101% and 104%; (compound 1 µM) 95.7% and 105%; (compound 3.16 µM) 97.2% and 95.9%; (compound 10 µM) 85.2% and 82.5%. Further, the IC50 (curve of compound) is greater than 10000 nM.

`Nc1ncn(C2CC(O)C(CO)O2)c(=O)n1` (stereo not drawn) + NC1CCC(NC2CC2c2ccccc2)CC1: the IC50 runs as follows: under setting [1], 24.8 nM; under setting [2], 46.5 nM; under setting [3], 27.4 nM; under setting [4], 19.4 nM; under setting [5], 11.1 nM. Besides, the viability, T/C (second compound 0.1 µM, first compound 0.00316 µM) was 78%; the viability, T/C (second compound 0.1 µM, first compound 0.01 µM) was 75.6%; the viability, T/C (second compound 0.1 µM, first compound 0.0316 µM) is 43%; the viability, T/C (second compound 0.1 µM, first compound 0.1 µM) is 28.6%; the viability, T/C (second compound 0.1 µM, first compound 0.316 µM) is 26.1%; the viability, T/C (second compound 0.1 µM, first compound 1 µM) was 24.2%. Besides, the viability, T/C is, setting by setting: (second compound 0.316 µM, first compound 0.00316 µM) 72.8%; (second compound 0.316 µM, first compound 0.01 µM) 75.7%; (second compound 0.316 µM, first compound 0.0316 µM) 55.2%; (second compound 0.316 µM, first compound 0.1 µM) 36.7%; (second compound 0.316 µM, first compound 0.316 µM) 25%; (second compound 0.316 µM, first compound 1 µM) 22.7%. Besides, the viability, T/C reads like this: (second compound 1 µM, first compound 0.00316 µM) 89.5%; (second compound 1 µM, first compound 0.01 µM) 73.5%; (second compound 1 µM, first compound 0.0316 µM) 46%; (second compound 1 µM, first compound 0.1 µM) 31.4%; (second compound 1 µM, first compound 0.316 µM) 27.8%; (second compound 1 µM, first compound 1 µM) 23.3%. Besides, the viability, T/C is 83.2% (second compound 3.16 µM, first compound 0.00316 µM); 56.7% (second compound 3.16 µM, first compound 0.01 µM); 45.3% (second compound 3.16 µM, first compound 0.0316 µM); 34% (second compound 3.16 µM, first compound 0.1 µM); 23.7% (second compound 3.16 µM, first compound 0.316 µM); 21.9% (second compound 3.16 µM, first compound 1 µM). In addition, the viability, T/C was 80.9% (second compound 10 µM, first compound 0.00316 µM); 50.5% (second compound 10 µM, first compound 0.01 µM); 36% (second compound 10 µM, first compound 0.0316 µM); 27.5% (second compound 10 µM, first compound 0.1 µM); 23.3% (second compound 10 µM, first compound 0.316 µM); 20.4% (second compound 10 µM, first compound 1 µM).

As for `Nc1ncn(C2CC(O)C(CO)O2)c(=O)n1` (stereo not drawn), the viability, T/C is, setting by setting: (compound 0.00316 µM) 88.2% and 96.1%; (compound 0.01 µM) 59% and 91.5%; (compound 0.0316 µM) 47.1% and 75.4%; (compound 0.1 µM) 32.5% and 45.5%; (compound 0.316 µM) 27.8% and 37.1%; (compound 1 µM) 23.9% and 27.6%. The IC50 (curve of compound) was 21.3 nM and 89.3 nM.

For `O=C(C=Cc1cccc(S(=O)(=O)Nc2ccccc2)c1)NO` + NC1CC1c1ccc(-c2cccc(O)c2)cc1, the IC50 by setting is: under setting [1], 54.8 nM; under setting [2], 54.7 nM; under setting [3], 53.8 nM; under setting [4], 59.5 nM; under setting [5], 36.4 nM. The viability, T/C was 76% under setting [6]; 70% under setting [7]; 20.3% under setting [8]; 3.17% under setting [9]; 0.96% under setting [10]; 103% under setting [11]. Moreover, the viability, T/C was 76.8% under setting [12]; 70.2% under setting [13]; 19.2% under setting [14]; 3.03% under setting [15]; 0.63% under setting [16]; 103% under setting [17]. For the same compound, the viability, T/C reads like this: under setting [18], 83.1%; under setting [19], 68.7%; under setting [20], 20.3%; under setting [21], 3.41%; under setting [22], 0.58%; under setting [23], 103%. Besides, the viability, T/C by setting is: under setting [24], 77.7%; under setting [25], 78.5%; under setting [26], 22.2%; under setting [27], 3.57%; under setting [28], 0.78%; under setting [29], 96.6%. In addition, the viability, T/C is 81.5% under setting [30]; 56.3% under setting [31]; 14.6% under setting [32]; 3.03% under setting [33]; 0.44% under setting [34]; 58.3% under setting [35].

As to `Cn1ncnc1C1c2n[nH]c(=O)c3cc(F)cc(c23)NC1c1ccc(F)cc1` (stereo not drawn), the viability, T/C is, setting by setting: (compound 0.000316 µM) 97.2% and 97.6%; (compound 0.001 µM) 93.6% and 102%; (compound 0.00316 µM) 101% and 98.2%; (compound 0.01 µM) 94.4% and 94.1%; (compound 0.0316 µM) 97.8% and 78.5%; (compound 0.1 µM) 89% and 77.8%. In addition, the IC50 (curve of compound) was greater than 100 nM.
